Columns and labels:
Assay type in all cases: cell-based
[1] = biological target: T1, heteromeric KV7.2/KV7.3 channels (KCNQ2, KCNQ3) (Homo sapiens, UniProt O43525+O43526); assay: Automated patch-clamp (Sophion Qube 384) potency assay against KV7.2/KV7.3 channels; settings: CHO-K1/Kv7.2/Kv7.3 cells; for EC50: EC50 from concentration-response of shift in Vhalf, 10 concentrations up to 30 μM, read-out: Kv7.2/7.3 EC50; for Kv7.2/7.3 ΔV1/2: maximal shift in the Vhalf from the top of the curve
T1 construct: expressed in transfected cells; host or cells: CHO-K1
Summary of the method: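 Activator potency: EC50 from 4-parameter logistic fit of mean Vhalf shift across ten 1-in-3 dilutions starting at 30 μM (n=4), with DMSO (typically 0.3%) control. Currents recorded by leak-subtracted whole-cell clamp of stable CHO-K1 KV7.2/KV7.3 cells, held at −80 mV, stepped −100 to +20 mV then 0 mV tails.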

[2] = biological target: T2, heteromeric KV7.3/KV7.5 channel (KCNQ3, KCNQ5) (Homo sapiens, UniProt O43525+Q9NR82); assay: Automated patch-clamp counter-screening against KV7.3/KV7.5 channel; settings: HEK293 cells expressing Kv7.3/KV7.5; class by maximal shift in the Vhalf at 30 μM
T2 construct: host or cells: HEK293
Summary of the method: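 Potency came from a 4-parameter logistic fit of mean voltage-of-half-activation shifts, yielding EC50 and maximal shift; selectivity was judged on the shift at 30 μM. Compounds were applied at ten 3-fold dilutions from 30 μM in quadruplicate to HEK293 cells stably carrying Kv7.3 with tet-inducible Kv7.5.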

[3] = biological target: T3, homomeric KV7.4 channel (KCNQ4) (Homo sapiens, UniProt P56696); assay: Automated patch-clamp (Qube) counter-screening assay against KV7.4 channel; settings: CHO-K1 cells expressing KV7.4; class by maximal shift in the Vhalf at 30 μM
T3 construct: host or cells: CHO-K1
Summary of the method: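 EC50 and maximal shift in half-activation voltage come from 4-parameter logistic fits of mean Vhalf shifts. The series had ten 1-in-3 concentrations, highest 30 μM, each tested in quadruplicate. Recordings used automated Qube patch clamp on a stable CHO-K1 line expressing KCNQ4, and selectivity was judged from the 30 μM Vhalf shift.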

In the case of `O=C(NCCC1(C(F)(F)F)CC1)NCc1cc(OCC(F)(F)F)ncc1F` [Compound 87, 1-((5-Fluoro-2-(2,2,2-trifluoroethoxy)pyridin-4-yl)methyl)-3-(2-(1-(trifluoromethyl)cyclopropyl)ethyl)urea], the EC50 [1] is reported as 1.85 µM, the “Kv7.2/7.3 ΔV1/2” value [1] is reported as 27.66 mV and the Kv7.3/7.5 selectivity criteria [2] is reported as “A (Selective compounds showed Kv7.4 and/or Kv7.3/7.5 ΔV1/2 equal to or lower than 15 mV (letter A in table 3))”. The Kv7.4 selectivity criteria [3] was “A (Selective compounds showed Kv7.4 and/or Kv7.3/7.5 ΔV1/2 equal to or lower than 15 mV (letter A in table 3))”.
`O=C(NCc1ccnc(OCC(F)(F)F)c1)NCC1CCC(F)(F)C1` (centres unmarked) [Compound 88, 1-((3,3-Difluorocyclopentyl)methyl)-3-((2-(2,2,2-trifluoroethoxy)pyridin-4-yl)methyl) urea] was tested, and the EC50 [1] was 0.96 µM, the “Kv7.2/7.3 ΔV1/2” value [1] was 30.26 mV and the Kv7.3/7.5 selectivity criteria [2] was “B (Non-selective compounds showed Kv7.4 and/or Kv7.3/7.5 ΔV1/2 higher than 15 mV (letter B in table 3))”. For the same compound, the Kv7.4 selectivity criteria [3] was “A (Selective compounds showed Kv7.4 and/or Kv7.3/7.5 ΔV1/2 equal to or lower than 15 mV (letter A in table 3))”.
For `O=C(NCc1ccnc(OCC(F)(F)F)c1)N[C@H]1CCc2ccc(F)cc21` [Compound 89], the EC50 [1] was 2.18 µM, the “Kv7.2/7.3 ΔV1/2” value [1] was 18.85 mV and the Kv7.3/7.5 selectivity criteria [2] was “A (Selective compounds showed Kv7.4 and/or Kv7.3/7.5 ΔV1/2 equal to or lower than 15 mV (letter A in table 3))”. The Kv7.4 selectivity criteria [3] was “B (Non-selective compounds showed Kv7.4 and/or Kv7.3/7.5 ΔV1/2 higher than 15 mV (letter B in table 3))”.
With `O=C(NCCC1(C(F)(F)F)CC1)NCc1ccnc(OCC(F)(F)F)c1F` [Compound 90] the EC50 [1] was 0.237 µM, the “Kv7.2/7.3 ΔV1/2” value [1] was 20.86 mV and the Kv7.3/7.5 selectivity criteria [2] was “A (Selective compounds showed Kv7.4 and/or Kv7.3/7.5 ΔV1/2 equal to or lower than 15 mV (letter A in table 3))”. The Kv7.4 selectivity criteria [3] was “A (Selective compounds showed Kv7.4 and/or Kv7.3/7.5 ΔV1/2 equal to or lower than 15 mV (letter A in table 3))”.
With `C[C@@H](Oc1cc(CNC(=O)NCCC2(C(F)(F)F)CC2)ncn1)C(F)(F)F` [Compound 91] the EC50 [1] was 2.29 µM, the “Kv7.2/7.3 ΔV1/2” value [1] was 37.24 mV and the Kv7.3/7.5 selectivity criteria [2] was “B (Non-selective compounds showed Kv7.4 and/or Kv7.3/7.5 ΔV1/2 higher than 15 mV (letter B in table 3))”. For the same compound, the Kv7.4 selectivity criteria [3] was “A (Selective compounds showed Kv7.4 and/or Kv7.3/7.5 ΔV1/2 equal to or lower than 15 mV (letter A in table 3))”.
For `O=C(NCc1ccnc(C(F)(F)F)c1)N[C@@H]1CCc2ccc(F)cc21` [Compound 92], the EC50 [1] was 3.95 µM, the “Kv7.2/7.3 ΔV1/2” value [1] was 16.77 mV and the Kv7.3/7.5 selectivity criteria [2] was “A (Selective compounds showed Kv7.4 and/or Kv7.3/7.5 ΔV1/2 equal to or lower than 15 mV (letter A in table 3))”. The Kv7.4 selectivity criteria [3] was “A (Selective compounds showed Kv7.4 and/or Kv7.3/7.5 ΔV1/2 equal to or lower than 15 mV (letter A in table 3))”.
`C[C@@H](Oc1nccc(CNC(=O)NCCC2(C(F)(F)F)CC2)n1)C(F)(F)F` [Compound 93] was tested, and the EC50 [1] was 4.46 µM, the “Kv7.2/7.3 ΔV1/2” value [1] was 34.16 mV and the Kv7.3/7.5 selectivity criteria [2] was “A (Selective compounds showed Kv7.4 and/or Kv7.3/7.5 ΔV1/2 equal to or lower than 15 mV (letter A in table 3))”. For the same compound, the Kv7.4 selectivity criteria [3] was “B (Non-selective compounds showed Kv7.4 and/or Kv7.3/7.5 ΔV1/2 higher than 15 mV (letter B in table 3))”.
With `O=C(NCc1ccnc(C(F)(F)F)c1)N[C@H]1CCc2ccc(F)cc21` [Compound 94] the EC50 [1] was 4.17 µM, the “Kv7.2/7.3 ΔV1/2” value [1] was 13.23 mV and the Kv7.3/7.5 selectivity criteria [2] was “A (Selective compounds showed Kv7.4 and/or Kv7.3/7.5 ΔV1/2 equal to or lower than 15 mV (letter A in table 3))”. The Kv7.4 selectivity criteria [3] was “A (Selective compounds showed Kv7.4 and/or Kv7.3/7.5 ΔV1/2 equal to or lower than 15 mV (letter A in table 3))”.
`O=C(NCCC1(C(F)(F)F)CC1)N1CCCC1c1ccnc(OCC(F)(F)F)c1` (centres unmarked) [Compound 95] was tested, and the EC50 [1] was 2.29 µM, the “Kv7.2/7.3 ΔV1/2” value [1] was 21.55 mV and the Kv7.3/7.5 selectivity criteria [2] was “A (Selective compounds showed Kv7.4 and/or Kv7.3/7.5 ΔV1/2 equal to or lower than 15 mV (letter A in table 3))”. The Kv7.4 selectivity criteria [3] was “A (Selective compounds showed Kv7.4 and/or Kv7.3/7.5 ΔV1/2 equal to or lower than 15 mV (letter A in table 3))”.
With `C[C@H](Oc1cc(CNC(=O)NCCC2(C(F)(F)F)CC2)ncn1)C(F)(F)F` [Compound 96] the EC50 [1] was 6.61 µM, the “Kv7.2/7.3 ΔV1/2” value [1] was 25.66 mV and the Kv7.3/7.5 selectivity criteria [2] was “A (Selective compounds showed Kv7.4 and/or Kv7.3/7.5 ΔV1/2 equal to or lower than 15 mV (letter A in table 3))”. For the same compound, the Kv7.4 selectivity criteria [3] was “A (Selective compounds showed Kv7.4 and/or Kv7.3/7.5 ΔV1/2 equal to or lower than 15 mV (letter A in table 3))”.
With `C[C@H](NC(=O)NCCC1(C(F)(F)F)CC1)c1ccnc(C(F)(F)F)c1` [Compound 97] the EC50 [1] was 2.3 µM, the “Kv7.2/7.3 ΔV1/2” value [1] was 26.87 mV and the Kv7.3/7.5 selectivity criteria [2] was “B (Non-selective compounds showed Kv7.4 and/or Kv7.3/7.5 ΔV1/2 higher than 15 mV (letter B in table 3))”. The Kv7.4 selectivity criteria [3] was “B (Non-selective compounds showed Kv7.4 and/or Kv7.3/7.5 ΔV1/2 higher than 15 mV (letter B in table 3))”.
`C[C@H](Oc1nccc(CNC(=O)NCCC2(C(F)(F)F)CC2)n1)C(F)(F)F` [Compound 98] was tested, and the EC50 [1] was 5.14 µM, the “Kv7.2/7.3 ΔV1/2” value [1] was 22.14 mV and the Kv7.3/7.5 selectivity criteria [2] was “A (Selective compounds showed Kv7.4 and/or Kv7.3/7.5 ΔV1/2 equal to or lower than 15 mV (letter A in table 3))”. The Kv7.4 selectivity criteria [3] was “A (Selective compounds showed Kv7.4 and/or Kv7.3/7.5 ΔV1/2 equal to or lower than 15 mV (letter A in table 3))”.
With `O=C(N[C@@H](CO)c1ccnc(OCC(F)(F)F)c1)N[C@H]1CCc2ccc(F)cc21` [Compound 99] the EC50 [1] was 12.8 µM, the “Kv7.2/7.3 ΔV1/2” value [1] was 29.92 mV and the Kv7.3/7.5 selectivity criteria [2] was “B (Non-selective compounds showed Kv7.4 and/or Kv7.3/7.5 ΔV1/2 higher than 15 mV (letter B in table 3))”. For the same compound, the Kv7.4 selectivity criteria [3] was “B (Non-selective compounds showed Kv7.4 and/or Kv7.3/7.5 ΔV1/2 higher than 15 mV (letter B in table 3))”.
For `O=C(NCc1ccnc(C(F)(F)F)c1)NCC1CCCCC1` [Compound 100], the EC50 [1] was 3.94 µM, the “Kv7.2/7.3 ΔV1/2” value [1] was 24.71 mV and the Kv7.3/7.5 selectivity criteria [2] was “B (Non-selective compounds showed Kv7.4 and/or Kv7.3/7.5 ΔV1/2 higher than 15 mV (letter B in table 3))”. For the same compound, the Kv7.4 selectivity criteria [3] was “A (Selective compounds showed Kv7.4 and/or Kv7.3/7.5 ΔV1/2 equal to or lower than 15 mV (letter A in table 3))”.
With `O=C(N[C@@H](CO)c1ccnc(OCC(F)(F)F)c1)N[C@@H]1CCc2ccc(F)cc21` [Compound 101] the EC50 [1] was 2.64 µM, the “Kv7.2/7.3 ΔV1/2” value [1] was 38.71 mV and the Kv7.3/7.5 selectivity criteria [2] was “B (Non-selective compounds showed Kv7.4 and/or Kv7.3/7.5 ΔV1/2 higher than 15 mV (letter B in table 3))”. The Kv7.4 selectivity criteria [3] was “B (Non-selective compounds showed Kv7.4 and/or Kv7.3/7.5 ΔV1/2 higher than 15 mV (letter B in table 3))”.
For `O=C(NCc1ccnc(C(F)(F)F)c1)Nc1cc(F)cc(Cl)c1` [Compound 102], the EC50 [1] was 3.83 µM, the “Kv7.2/7.3 ΔV1/2” value [1] was 35.23 mV and the Kv7.3/7.5 selectivity criteria [2] was “B (Non-selective compounds showed Kv7.4 and/or Kv7.3/7.5 ΔV1/2 higher than 15 mV (letter B in table 3))”. The Kv7.4 selectivity criteria [3] was “B (Non-selective compounds showed Kv7.4 and/or Kv7.3/7.5 ΔV1/2 higher than 15 mV (letter B in table 3))”.
For `O=C(NCC1CCCCC1)N[C@@H](CO)c1ccnc(OCC(F)(F)F)c1` [Compound 103], the EC50 [1] was 1.34 µM, the “Kv7.2/7.3 ΔV1/2” value [1] was 42.63 mV and the Kv7.3/7.5 selectivity criteria [2] was “B (Non-selective compounds showed Kv7.4 and/or Kv7.3/7.5 ΔV1/2 higher than 15 mV (letter B in table 3))”. The Kv7.4 selectivity criteria [3] was “A (Selective compounds showed Kv7.4 and/or Kv7.3/7.5 ΔV1/2 equal to or lower than 15 mV (letter A in table 3))”.
